Measured values: ChEMBL document CHEMBL4765312, “Capsaicin derivatives with nitrothiophene substituents: Design, synthesis and antibacterial activity against multidrug-resistant S. aureus” (Eur J Med Chem, 2020)
≈ marks a conversion by molar mass, not a printed value. Calls of active or inactive are those of the source. The calls are words filed in the database; no cut-off is given here.

Columns and labels:
Staphylococcus aureus [1] = assay: Antibacterial activity against mutidrug-resistant Staphylococcus aureus NRS100 assessed as reduction in bacterial growth incubated for 16 to 18 hrs by two fold serial dilution method; format: functional; details: time 16-18 hrs
Staphylococcus aureus [2] = assay: Antibacterial activity against multidrug-resistant Staphylococcus aureus NRS271 assessed as reduction in bacterial growth incubated for 16 to 18 hrs by two fold serial dilution method; format: functional; details: time 16-18 hrs
Staphylococcus aureus [3] = assay: Antibacterial activity against multidrug-resistant Staphylococcus aureus NRS108 assessed as reduction in bacterial growth incubated for 16 to 18 hrs by two-fold serial dilution method; format: functional; details: time 16-18 hrs
Staphylococcus aureus [4] = assay: Antibacterial activity against multidrug-resistant Staphylococcus aureus NRS70 assessed as reduction in bacterial growth incubated for 16 to 18 hrs by two fold serial dilution method; format: functional; details: time 16-18 hrs
Staphylococcus aureus [5] = assay: Antibacterial activity against Staphylococcus aureus Newman strain assessed as reduction in bacterial growth incubated for 16 to 18 hrs by two fold serial dilution method; format: functional; details: time 16-18 hrs
Staphylococcus aureus [6] = assay: Antibacterial activity against multidrug-resistant Staphylococcus aureus NRS1 assessed as reduction in bacterial growth incubated for 16 to 18 hrs by two fold serial dilution method; format: functional; details: time 16-18 hrs
[7] = Cytotoxicity against human HEK293T cells assessed as reduction in cell viability measured after 48 hrs by MTT assay; format: cell-based, HEK-293T
Staphylococcus aureus [8] = assay: Potency index, ratio of vancomycin MIC to test compound MIC for antibacterial activity against multidrug-resistant Staphylococcus aureus NRS271 assessed as reduction in bacterial growth incubated for 16 to 18 hrs by two fold serial dilution method; format: functional; details: time 16-18 hrs
Staphylococcus aureus [9] = assay: Potency index, ratio of vancomycin MIC to test compound MIC for antibacterial activity against mutidrug-resistant Staphylococcus aureus NRS100 assessed as reduction in bacterial growth incubated for 16 to 18 hrs by two fold serial dilution method; format: functional; details: time 16-18 hrs
Staphylococcus aureus [10] = assay: Potency index, ratio of vancomycin MIC to test compound MIC for antibacterial activity against multidrug-resistant Staphylococcus aureus NRS108 assessed as reduction in bacterial growth incubated for 16 to 18 hrs by two-fold serial dilution method; format: functional; details: time 16-18 hrs
Staphylococcus aureus [11] = assay: Antibiofilm activity against Staphylococcus aureus Newman strain assessed as biofilm formation at 0.78 ug/ml after 24 hrs by crystal violet staining based assay relative to control; format: functional; details: dose 0.78 µg/ml
Staphylococcus aureus [12] = assay: Potency index, ratio of vancomycin MIC to test compound MIC for antibacterial activity against multidrug-resistant Staphylococcus aureus NRS1 assessed as reduction in bacterial growth incubated for 16 to 18 hrs by two fold serial dilution method; format: functional; details: time 16-18 hrs
Staphylococcus aureus [13] = assay: Bactericidal activity against Staphylococcus aureus Newman strain assessed as reduction in bacterial colonies formation after 24 hrs by crystal violet staining based assay; format: functional, organism-based
Staphylococcus aureus [14] = assay: Potency index, ratio of vancomycin MIC to test compound MIC for antibacterial activity against multidrug-resistant Staphylococcus aureus NRS70 assessed as reduction in bacterial growth incubated for 16 to 18 hrs by two fold serial dilution method; format: functional; details: time 16-18 hrs

NC[C@H]1O[C@H](O[C@H]2[C@H](O)[C@@H](O[C@H]3O[C@H](CO)[C@@H](O)[C@H](N)[C@H]3O)[C@H](N)C[C@@H]2N)[C@H](O)[C@@H](O)[C@@H]1O [KANAMYCIN]
MIC (Staphylococcus aureus [1]): 1.56 µg/mL (≈ 3.22 µM)
MIC (Staphylococcus aureus [2]): 3.13 µg/mL (≈ 6.46 µM)
MIC (Staphylococcus aureus [3]): > 50 µg/mL
MIC (Staphylococcus aureus [4]): > 50 µg/mL
MIC (Staphylococcus aureus [5]): 3.13 µg/mL (≈ 6.46 µM)
MIC (Staphylococcus aureus [6]): > 50 µg/mL

COc1cc(CNC(=O)c2ccc([N+](=O)[O-])o2)ccc1OC(=O)c1ccc([N+](=O)[O-])o1
MIC (Staphylococcus aureus [5]): 3.13 µg/mL (≈ 7.26 µM)

O=C(Nc1ccc([N+](=O)[O-])s1)c1ccc(CNC(=O)c2ccc([N+](=O)[O-])s2)cc1
MIC (Staphylococcus aureus [5]): > 50 µg/mL

Cc1cc(CNC(=O)c2ccc([N+](=O)[O-])s2)ccc1OC(=O)c1ccc([N+](=O)[O-])s1
MIC (Staphylococcus aureus [1]): 0.39 µg/mL (≈ 0.872 µM)
MIC (Staphylococcus aureus [2]): 0.39 µg/mL (≈ 0.872 µM)
MIC (Staphylococcus aureus [3]): 1.56 µg/mL (≈ 3.49 µM)
MIC (Staphylococcus aureus [4]): 0.39 µg/mL (≈ 0.872 µM)
CC50 at 48 h [7]: 168 µg/mL (≈ 375 µM)
MIC (Staphylococcus aureus [5]): 0.39 µg/mL (≈ 0.872 µM)
MIC (Staphylococcus aureus [6]): 0.39 µg/mL (≈ 0.872 µM)

COc1cc(CNC(=O)c2ncc([N+](=O)[O-])n2C)ccc1OC(=O)c1ccc([N+](=O)[O-])s1
MIC (Staphylococcus aureus [5]): > 50 µg/mL

COc1cc(CNC(=O)c2ccc([N+](=O)[O-])s2)cc(OC)c1OC(=O)c1ccc([N+](=O)[O-])s1
MIC (Staphylococcus aureus [5]): 3.13 µg/mL (≈ 6.34 µM)

COc1cc(CNC(=O)c2ccc([N+](=O)[O-])s2)ccc1OC(=O)c1cccs1
MIC (Staphylococcus aureus [5]): > 50 µg/mL

O=C(NCc1ccc(OC(=O)c2ccc([N+](=O)[O-])s2)c(F)c1)c1ccc([N+](=O)[O-])s1
MIC (Staphylococcus aureus [5]): 3.13 µg/mL (≈ 6.93 µM)

O=C(NCc1ccc(OC(=O)c2ccc([N+](=O)[O-])s2)c(C(F)(F)F)c1)c1ccc([N+](=O)[O-])s1
MIC (Staphylococcus aureus [5]): 3.13 µg/mL (≈ 6.24 µM)

COc1cc(CNC(=O)CCCC/C=C/C(C)C)ccc1O [CAPSAICIN]
MIC (Staphylococcus aureus [5]): > 50 µg/mL

COc1cc(CNC(=O)c2ccc([N+](=O)[O-])s2)ccc1OC(=O)c1ccc([N+](=O)[O-])s1
MIC (Staphylococcus aureus [1]): 0.78 µg/mL (≈ 1.68 µM)
MIC (Staphylococcus aureus [2]): 0.78 µg/mL (≈ 1.68 µM)
MIC (Staphylococcus aureus [3]): 1.56 µg/mL (≈ 3.37 µM)
MIC (Staphylococcus aureus [4]): 0.78 µg/mL (≈ 1.68 µM)
CC50 at 48 h [7]: 61 µg/mL (≈ 132 µM)
MIC (Staphylococcus aureus [5]): 1.56 µg/mL (≈ 3.37 µM)
MIC (Staphylococcus aureus [6]): 0.78 µg/mL (≈ 1.68 µM)

COc1cc(CNC(=O)c2ccc([N+](=O)[O-])s2)ccc1OC(=O)c1ccc([N+](=O)[O-])o1
MIC (Staphylococcus aureus [5]): 6.25 µg/mL (≈ 14 µM)

COc1cc(CNC(=O)c2ccc([N+](=O)[O-])s2)ccc1OC(=O)/C=C/c1ccc([N+](=O)[O-])s1
MIC (Staphylococcus aureus [5]): > 50 µg/mL

O=C(NCc1ccc(NC(=O)c2ccc([N+](=O)[O-])s2)cc1)c1ccc([N+](=O)[O-])s1
MIC (Staphylococcus aureus [5]): > 50 µg/mL

CCCCCCCCCC(=O)NCc1ccc(OC(=O)c2ccc([N+](=O)[O-])s2)c(OC)c1
MIC (Staphylococcus aureus [5]): > 50 µg/mL

COc1cc(CNC(=O)c2cccc([N+](=O)[O-])c2)ccc1OC(=O)c1ccc([N+](=O)[O-])s1
MIC (Staphylococcus aureus [5]): > 50 µg/mL

COc1cc(CNC(=O)c2ccc([N+](=O)[O-])s2)ccc1OC(=O)c1ncc([N+](=O)[O-])n1C
MIC (Staphylococcus aureus [5]): > 50 µg/mL

O=C(NCc1ccc(Oc2ccc([N+](=O)[O-])s2)cc1)c1ccc([N+](=O)[O-])s1
MIC (Staphylococcus aureus [5]): 3.13 µg/mL (≈ 7.72 µM)

COc1cc(CNC(=O)c2cccs2)ccc1OC(=O)c1ccc([N+](=O)[O-])s1
MIC (Staphylococcus aureus [5]): > 50 µg/mL

O=C(NCc1ccc(OC(=O)c2ccc([N+](=O)[O-])s2)c(Br)c1)c1ccc([N+](=O)[O-])s1
MIC (Staphylococcus aureus [5]): 6.25 µg/mL (≈ 12.2 µM)

COc1cc(OC(=O)c2ccc([N+](=O)[O-])s2)ccc1CNC(=O)c1ccc([N+](=O)[O-])s1
MIC (Staphylococcus aureus [1]): 0.78 µg/mL (≈ 1.68 µM)
MIC (Staphylococcus aureus [2]): 0.78 µg/mL (≈ 1.68 µM)
MIC (Staphylococcus aureus [3]): 1.56 µg/mL (≈ 3.37 µM)
MIC (Staphylococcus aureus [4]): 0.78 µg/mL (≈ 1.68 µM)
MIC (Staphylococcus aureus [5]): 1.56 µg/mL (≈ 3.37 µM)
MIC (Staphylococcus aureus [6]): 0.78 µg/mL (≈ 1.68 µM)

O=C(NCc1ccc(-c2noc(-c3ccc([N+](=O)[O-])s3)n2)cc1)c1ccc([N+](=O)[O-])s1
MIC (Staphylococcus aureus [1]): 0.39 µg/mL (≈ 0.853 µM)
Ratio (Staphylococcus aureus [8]): 2
MIC (Staphylococcus aureus [2]): 0.2 µg/mL (≈ 0.437 µM)
MIC (Staphylococcus aureus [3]): 0.2 µg/mL (≈ 0.437 µM)
Ratio (Staphylococcus aureus [9]): 2
Ratio (Staphylococcus aureus [10]): 2
Activity (Staphylococcus aureus [11]): 80%
Ratio (Staphylococcus aureus [12]): 2
Activity (Staphylococcus aureus [13]): Active
Ratio (Staphylococcus aureus [14]): 2
MIC (Staphylococcus aureus [4]): 0.2 µg/mL (≈ 0.437 µM)
CC50 at 48 h [7]: 126 µg/mL (≈ 276 µM)
MIC (Staphylococcus aureus [5]): 0.78 µg/mL (≈ 1.71 µM)
MIC (Staphylococcus aureus [6]): 0.39 µg/mL (≈ 0.853 µM)

COc1cc(CNC(=O)/C=C/c2ccc([N+](=O)[O-])s2)ccc1OC(=O)c1ccc([N+](=O)[O-])s1
MIC (Staphylococcus aureus [5]): > 50 µg/mL

O=C(NCc1ccc(OC(=O)c2ccc([N+](=O)[O-])s2)c([N+](=O)[O-])c1)c1ccc([N+](=O)[O-])s1
MIC (Staphylococcus aureus [5]): 6.25 µg/mL (≈ 13.1 µM)

COc1cc(CNC(=O)c2ccc([N+](=O)[O-])o2)ccc1OC(=O)c1ccc([N+](=O)[O-])s1
MIC (Staphylococcus aureus [5]): 3.13 µg/mL (≈ 7 µM)

COc1cc(CNC(=O)c2ccc([N+](=O)[O-])s2)ccc1OC(=O)c1cccc([N+](=O)[O-])c1
MIC (Staphylococcus aureus [5]): > 50 µg/mL

CN[C@H](CC(C)C)C(=O)N[C@H]1C(=O)N[C@@H](CC(N)=O)C(=O)N[C@H]2C(=O)N[C@H]3C(=O)N[C@H](C(=O)N[C@H](C(=O)O)c4cc(O)cc(O)c4-c4cc3ccc4O)[C@H](O)c3ccc(c(Cl)c3)Oc3cc2cc(c3O[C@@H]2O[C@H](CO)[C@@H](O)[C@H](O)[C@H]2O[C@H]2C[C@](C)(N)[C@H](O)[C@H](C)O2)Oc2ccc(cc2Cl)[C@H]1O [VANCOMYCIN]
MIC (Staphylococcus aureus [1]): 0.78 µg/mL (≈ 0.538 µM)
MIC (Staphylococcus aureus [2]): 0.78 µg/mL (≈ 0.538 µM)
MIC (Staphylococcus aureus [3]): 0.78 µg/mL (≈ 0.538 µM)
Activity (Staphylococcus aureus [13]): inactive
MIC (Staphylococcus aureus [4]): 0.39 µg/mL (≈ 0.269 µM)
MIC (Staphylococcus aureus [5]): 0.78 µg/mL (≈ 0.538 µM)
MIC (Staphylococcus aureus [6]): 1.56 µg/mL (≈ 1.08 µM)

CN(Cc1ccc(N(C)C(=O)c2ccc([N+](=O)[O-])s2)cc1)C(=O)c1ccc([N+](=O)[O-])s1
MIC (Staphylococcus aureus [5]): 6.25 µg/mL (≈ 13.6 µM)

O=C(NCc1ccc(OC(=O)c2ccc([N+](=O)[O-])s2)cc1)c1ccc([N+](=O)[O-])s1
MIC (Staphylococcus aureus [1]): 3.13 µg/mL (≈ 7.22 µM)
MIC (Staphylococcus aureus [2]): 1.56 µg/mL (≈ 3.6 µM)
MIC (Staphylococcus aureus [3]): 3.13 µg/mL (≈ 7.22 µM)
MIC (Staphylococcus aureus [4]): 0.78 µg/mL (≈ 1.8 µM)
CC50 at 48 h [7]: 251 µg/mL (≈ 579 µM)
MIC (Staphylococcus aureus [5]): 0.78 µg/mL (≈ 1.8 µM)
MIC (Staphylococcus aureus [6]): 0.78 µg/mL (≈ 1.8 µM)

O=C(NCc1ccc(OC(=O)c2ccc([N+](=O)[O-])s2)c(Cl)c1)c1ccc([N+](=O)[O-])s1
MIC (Staphylococcus aureus [1]): 3.13 µg/mL (≈ 6.69 µM)
MIC (Staphylococcus aureus [2]): 1.56 µg/mL (≈ 3.33 µM)
MIC (Staphylococcus aureus [3]): 1.56 µg/mL (≈ 3.33 µM)
MIC (Staphylococcus aureus [4]): 0.39 µg/mL (≈ 0.834 µM)
MIC (Staphylococcus aureus [5]): 0.78 µg/mL (≈ 1.67 µM)
MIC (Staphylococcus aureus [6]): 0.78 µg/mL (≈ 1.67 µM)

COc1cc(CNC(=O)c2ccc([N+](=O)[O-])s2)ccc1O
MIC (Staphylococcus aureus [5]): > 50 µg/mL
